Results reported in patent publication US8288375B2, “Fungicidal bicyclic pyrazoles” (E.I. du Pont de Nemours and Company, priority 2007, dated 2012).

Assays:
Type in all cases: in vivo
[1] = system: Erysiphe graminis f. sp. tritici; assay: Test A: wheat powdery mildew, test suspension sprayed on wheat seedlings, disease rating; conditions: 200 ppm test suspension; 100 = 100% disease control, 0 = no control
[2] = system: Puccinia recondite f sp. tritici; assay: Test B: wheat leaf rust, test suspension sprayed on wheat seedlings, disease rating; conditions: 200 ppm test suspension;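 note: 200 ppm unless marked * meaning 40 ppm or ** meaning 10 ppm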
Fusarium graminearum = assay: whole plant or invertebrate; conditions: 200 ppm test suspension
Septoria nodorum = assay: Test D: wheat glume blotch, test suspension sprayed on wheat seedlings, disease rating; conditions: 200 ppm test suspension
Septoria tritici = assay: Test E: wheat leaf blotch, test suspension sprayed on wheat seedlings, disease rating; conditions: 200 ppm test suspension;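 note: 200 ppm unless marked * meaning 40 ppm or ** meaning 10 ppm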
Phytophthora infestans = assay: whole plant or invertebrate; conditions: 200 ppm test suspension
Pythium aphanidermatum = assay: Test L: bluegrass pythium blight, test suspension sprayed on bluegrass seedlings, disease rating; conditions: 200 ppm test suspension;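 note: 200 ppm unless marked * meaning 40 ppm or ** meaning 10 ppm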

| Compound | Test A disease control rating [1] [%] | Test B disease control rating [2] [%] | Test C disease control rating (Fusarium graminearum) [%] | Test D disease control rating (Septoria nodorum) [%] | Test E disease control rating (Septoria tritici) [%] | Test J disease control rating (Phytophthora infestans) [%] | Test L disease control rating (Pythium aphanidermatum) [%] |
| --- | --- | --- | --- | --- | --- | --- | --- |
| Fc1ccc(-c2nn3c(c2-c2ccnc(Nc4ccc(OC(F)(F)F)cc4)n2)CCCC3)cc1 [compound 60] | 0 | 74 | 91 | 64 | 71 | 9 | 0 |
| c1cc(-c2c(-c3ccsc3)nn3c2CCCC3)nc(NC2CC2)n1 [compound 61] | 79 | 94 | 98 | 99 | 98 | 97 | 99 |
| OCC(CO)Nc1nccc(-c2c(-c3ccc(F)cc3)nn3c2CCCC3)n1 [compound 63] | 81 | 91 | 0 | 0 | 82 | 9 | 100 |
| CC(CS(=O)(=O)[O-])Nc1nccc(-c2c(-c3ccc(F)cc3)nn3c2CCCC3)n1.[Na+] (stereo not shown) [compound 64] | 0 | 0 | 0 | 0 | 0 | 0 | 0 |
| CONc1nccc(-c2c(-c3ccc(F)cc3)nn3c2CCCC3)n1 [compound 65] | 28 | 65 | 87 | 31 | 98 | 43 | 99 |
| CC(COC(=O)CCC(=O)O)Nc1nccc(-c2c(-c3ccc(F)cc3)nn3c2CCCC3)n1 (stereo not shown) [compound 66] | 0 | 88 | 83 | 0 | 72 | 97 | 100 |
| CC(=O)OCC(C)Nc1nccc(-c2c(-c3ccc(F)cc3)nn3c2CCCC3)n1 (stereo not shown) [compound 67] | 0 | 100 | 100 | 78 | 93 | 99 | 100 |
| CC(COC(=O)c1cccnc1)Nc1nccc(-c2c(-c3ccc(F)cc3)nn3c2CCCC3)n1 (stereo not shown) [compound 68] | 0 | 98 | 99 | 95 | 93 | 95 | 100 |
| CC(C)Nc1nccc(-c2c(-c3ccc(F)cc3)nn3c2CCCC3)n1.Cl [compound 69] | 59 | 97 | 100 | 99 | 100 | 97 | 100 |
| CC1CN1c1nccc(-c2c(-c3ccc(F)cc3)nn3c2CCCC3)n1 (stereo not shown) [compound 81] | 0 | 98 | 98 | 87 | 100 | 99 | 95 |
| Fc1ccc(-c2nn3c(c2-c2ccnc(N4CCC4)n2)CCCC3)cc1 [compound 82] | 81 | 91 | 96 | 60 | 97 | 99 | 0 |
| COCC(C)Nc1nccc(-c2c(-c3ccccc3F)nn3c2CCC3)n1 (stereo not shown) [compound 96] | 0 | 19 | 96 | 0 | 62 | 98 | 83 |
| CC(C)Nc1nccc(-c2c(-c3ccccc3F)nn3c2CCC3)n1 [compound 97] | 0 | 55 | 100 | 82 | 61 | 96 | 100 |
| CC(C)CNc1nccc(-c2c(-c3ccccc3F)nn3c2CCC3)n1 [compound 98] | 0 | 74 | 97 | 82 | 95 | 88 | 99 |
| Fc1ccccc1-c1nn2c(c1-c1ccnc(NC3CC3)n1)CCC2 [compound 99] | 0 | 94 | 99 | 89 | 98 | 99 | 100 |
| COCC(C)Nc1nccc(-c2c(-c3cccc(F)c3)nn3c2CCC3)n1 (stereo not shown) [compound 100] | 0 | 89 | 99 | 90 | 92 | 98 | 100 |
| CCC(C)Nc1nccc(-c2c(-c3cccc(F)c3)nn3c2CCC3)n1 (stereo not shown) [compound 101] | 0 | 89 | 99 | 92 | 94 | 57 | 91 |
| CC(C)Nc1nccc(-c2c(-c3cccc(F)c3)nn3c2CCC3)n1 [compound 102] | 73 | 92 | 100 | 97 | 100 | 96 | 99 |
| Fc1cccc(-c2nn3c(c2-c2ccnc(NC4CC4)n2)CCC3)c1 [compound 103] | 85 | 95 | 99 | 99 | 100 | 99 | 100 |
| Fc1cc(F)cc(-c2nn3c(c2-c2ccnc(NC4CC4)n2)CCC3)c1 [compound 104] | 0 | 0 | 55 | 0 | 88 | 88 | 91 |
| CC(C)Nc1nccc(-c2c(-c3ccc(F)cc3)nn3c2CSCC3)n1 [compound 110] | 0 | 95 | 92 | 60 | 17 | 99 | 100 |
| CC(CO)Nc1nccc(-c2c(-c3ccc(F)cc3)nn3c2CSCC3)n1 (stereo not shown) [compound 111] | 21 | 95 | 95 | 64 | 31 | 80 | 100 |
